Test results from patent US5807875A, “Amino acid derivatives, pharmaceutical compositions containing these compounds and processes for preparing them” (Dr. Karl Thomae GmbH, priority 1993, dated 1998).

Tests used:
[1] = system: NPY-induced blood pressure effects; test: In vivo NPY-antagonism (pithed rats); settings: Rattus norvegicus, iv, 1 min, inhibition of increase in diastolic blood pressure by NPY (10 μg/kg, i.v.), NPY given one minute after test substance, read-out: pID50 (the source's name) (converted)
Description: C. In vivo NPY-antagonism
Male rats of normal blood pressure (Chbb:THOM, 300 to 350 g) are anaesthetised with sodium hexobarbital (150 mg/kg, i.p.). After intubation of the trachea the animals are pithed by introducing a blunt needle through the eye into the spinal bone marrow channel. The animals are ventilated with oxygen-rich ambient air using a respiratory pump (20 strokes/minute). A cannula is inserted in the left carotid artery and the arterial blood pressure is measured using a pressure gauge (Braun Melsungen Combitrans) connected to a recording device. For injection purposes a catheter is placed in the left jugular vein through which heparin is administered (200 IU/kg, i.v.). After the blood pressure has been stabilised, the animals are given 2 bolus injections of NPY (10 μg/kg, i.v.) at intervals of 15 minutes. The average increase in diastolic blood pressure is taken as the reference value (=100%). The test substances are injected in increasing doses (4 to 6 doses) at intervals of 15 minutes. One minute after administration of the test substance, NPY is administered.
The antagonistic effect of the test substances is determined by plotting the percentage inhibition of the NPY-induced blood pressure effects against the logarithm of the concentration of active substance.

NPY-Y1 receptor = target: T1, NPY-Y1 receptor (Homo sapiens, UniProt P25929); test: Studies of binding with SK-N-MC cells (displacement of [^125 I]-Bolton-Hunter-NPY); settings: SK-N-MC cells expressing the human Y1-receptor, 3 hours at ambient temperature
T1 construct: SK-N-MC cells (expressing the human Y1 -receptor); endogenous in cells; host or cells: SK-N-MC (human cell line), whole cells in suspension
T1 sequence (P25929 1-384): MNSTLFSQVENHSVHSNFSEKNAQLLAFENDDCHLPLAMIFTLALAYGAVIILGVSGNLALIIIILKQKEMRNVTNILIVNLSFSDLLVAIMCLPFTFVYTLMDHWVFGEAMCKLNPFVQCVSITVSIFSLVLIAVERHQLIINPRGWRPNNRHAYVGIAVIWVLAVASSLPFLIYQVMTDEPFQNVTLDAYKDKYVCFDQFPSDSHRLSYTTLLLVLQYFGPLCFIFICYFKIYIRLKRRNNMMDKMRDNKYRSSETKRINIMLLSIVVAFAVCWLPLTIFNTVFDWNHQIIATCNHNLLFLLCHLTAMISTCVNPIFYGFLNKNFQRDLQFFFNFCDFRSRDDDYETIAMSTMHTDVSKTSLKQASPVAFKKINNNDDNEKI
Description: A. Studies of binding with SK-N-MC cells (expressing the human Y1 -receptor)
Incubation is ended by centrifuging (10 minutes at 3000×gand 4° C.). After washing once with PBS, the radioactivity of the pellet is measured in a gamma counter. […] The proportion of non-specific binding is defined as that radioactivity which is bound in the presence of 1 μM NPY. The IC50 values of the unlabelled test substances are determined graphically.

NPY activity = test: NPY-antagonism in vitro (isolated perfused rat kidney); settings: inhibition of NPY (1 μM bolus) induced pressure increase, 5 minute infusion of compound
Description: B. NPY-antagonism in vitro
Male rats (CHbb: THOM, 300 to 350 g) are given heparin (100 IU, i.v.) and the animals are then killed by a blow to the back of the neck. The abdomen is opened along the centre of the body and the left kidney is removed after the insertion of catheters in the renal artery, renal vein and ureter. The isolated kidney is immediately perfused with a modified Krebs-Ringer solution having the following composition (4 ml/minute):
A mixture of 95% O2 /5% CO2 is passed through the solution which is kept at a temperature of 37° C. The perfusion pressure is measured continuously using a pressure gauge. After a 60 minute stabilisation period the perfusion rate is adjusted so as to obtain a perfusion pressure of approximately 100 mm Hg. After a further 30 minutes the experiment is started and NPY (1 μM) is administered as a bolus (0.1 ml) at 15 minute intervals until the pressure increase observed reaches a constant value. The compounds to be tested are given in the form of a continuous infusion over a period of 5 minutes and then NPY is injected. After a 30 minute wash-out period the next highest concentration of test substance is investigated. 3 to 5 different concentrations of the particular compound are tested on each occasion. Concentration/activity curves can be obtained by plotting the percentage inhibition of the NPY activity against the logarithm of the concentration (mol/l) of the compound.

| SMILES | IC50 (NPY-Y1 receptor) [nM] | other results |
| --- | --- | --- |
| N=C(N)c1cccc(CC(NC(=O)C(c2ccccc2)c2ccccc2)C(=O)NCc2ccc(O)cc2)c1 (stereo not drawn) [F] | 11.3 | ED50 [1]: 0.151 µmol/kg; pIC50 (NPY activity): 7.70 mol/l |
| O=C(NC(CCCNc1ncc[nH]1)C(=O)NCc1ccc(O)cc1)c1ccc2ccccc2c1 (stereo not drawn) [M] | 80.5 |  |
| Cc1cc(CNC(=O)C(CCCNC(=N)N)NC(=O)C(c2ccccc2)c2ccccc2)cc(C)c1O (stereo not drawn) [I] | 26 |  |
| N=C(N)NCCC[C@@H](NC(=O)C(c1ccc(Br)cc1)c1ccc(Br)cc1)C(=O)NCc1ccc(O)cc1 [A] | 1.8 |  |
| N=C(N)NCCC[C@@H](NC(=O)C(c1ccccc1)c1ccccc1)C(=O)NCc1ccc(CO)cc1 [D] | 13.5 |  |
| O=C(Nc1ccc2ccccc2c1)NC(CCCNc1ncc[nH]1)C(=O)NCc1ccc(O)cc1 (stereo not drawn) [N] | 85.5 |  |
| N=C(N)CCCCC(NC(=O)C(c1ccccc1)c1ccccc1)C(=O)NCc1ccc(O)cc1 (stereo not drawn) [P] | 39 |  |
| N=C(N)NCCC[C@@H](NC(=O)C(c1ccccc1)c1ccccc1)C(=O)NCc1ccc(O)cc1 [C] |  | ED50 [1]: 0.186 µmol/kg; pIC50 (NPY activity): 7.15 mol/l |
| N=C(N)NCCC[C@@H](NC(=O)C(c1ccccc1)c1ccccc1)C(=O)NCc1ccc(CCO)cc1 [B] | 7.7 |  |
| N=C(N)NCCC[C@@H](NC(=O)C(c1ccccc1)c1ccccc1)C(=O)NCc1ccc(CN)cc1.O=C(O)C(F)(F)F.O=C(O)C(F)(F)F [Example 128, (R)-N-[[4-(Aminomethyl)phenyl]methyl]-N^2-(diphenylacetyl)-argininamide-bis-(trifluoroacetate)] |  | solubility in dichloromethane (Solubility; dichloromethane): readily soluble; solubility in dimethylsulphoxide (Solubility; dimethylsulphoxide): readily soluble; solubility in methanol (Solubility; methanol): readily soluble; solubility in water (Solubility; water): readily soluble |

More lines, in order of falling IC50 (NPY-Y1 receptor), values ahead:

| IC50 (NPY-Y1 receptor) [nM] | SMILES | other results |
| --- | --- | --- |
| 207 | O=C(NCc1ccc(O)cc1)C(Cc1ccc(C2=NCCN2)cc1)NC(=O)C(c1ccccc1)c1ccccc1 (stereo not drawn) [O] |  |
| 32 | COc1ccc(CNC(=O)C(CCCNC(=N)N)NC(=O)C(c2ccccc2)c2ccccc2)cc1 (stereo not drawn) [K] | ED50 [1]: 0.331 µmol/kg; pIC50 (NPY activity): 6.70 mol/l |
| 26.8 | CC1(C)NC(=O)N(Cc2ccc(CNC(=O)[C@@H](CCCNC(=N)N)NC(=O)C(c3ccccc3)c3ccccc3)cc2)C1=O [L] |  |
| 25.3 | CN(Cc1ccc(O)cc1)C(=O)[C@@H](CCCNC(=N)N)NC(=O)C(c1ccccc1)c1ccccc1 [G] |  |
| 18 | O=C(NCc1ccc(O)cc1)C(CCCNc1ncc[nH]1)NC(=O)C(c1ccccc1)c1ccccc1 (stereo not drawn) [H] |  |
| 10 | Cc1cc(CNC(=O)C(CCCNC(=N)N)NC(=O)C(c2ccccc2)c2ccccc2)ccc1O (stereo not drawn) [E] |  |
